# Laboratory results from article PMC12259270, “Sensory neuron–expressed FGF13 controls nociceptive signaling in diabetic neuropathy models” (The Journal of Clinical Investigation, 2025).
# Where “and” joins values, the source holds several entries; their conditions need not be identical. Equal values may be shown once. Residues, ends and D or L forms follow the SMILES beside them. *: point of attachment. NHPh = c1ccc(N*)cc1
# System: C57BL/6 mice
# Experiment: Capsaicin-induced mechanical hypersensitivity (von Frey)
# Assay type: in vivo, mouse
# Parameters: LVF Mean / HVF Mean / MECHANICAL LVF / MECHANICAL HVF: unit not given here
# From the text: FGF13 is a neuronal gene ubiquitously transcribed in DRG neuronal subtypes ([43]–[46]). To investigate neuronal subtype enrichment of the FGF13 transcript, we examined a gene panel including FGF13, SCN9A, and several marker genes in mouse single-cell transcriptomic data (Supplemental Figure 10) ([43]–[46]). […] Critically, putative silent nociceptors marked by somatostatin (SST), and the nicotinic cholinergic receptor α-3 subunit (CHRNA3) contribute to development of inflammatory mechanical hyperalgesia ([47]). […] We next determined if PW164 modulation of the FGF13/Nav1.7 complex could suppress nociceptive behaviors in WT mice. We tested whether intraplantar (i.pl.) injection (5 μL) of PW164 altered hind paw withdrawal in response to low or high intensity von Frey filament (LVF or HVF, respectively) mechanical stimulation (Figure 3A). […] Next, we evaluated PW164’s effect on mechanical and thermal hindpaw sensitivity in capsaicin-induced nociceptive hypersensitivity models. […] Next, we performed in vivo target validation in WT mice that received an intrathecal (i.t.) injection in L5 of AAV2-shFGF13 (6 μL, viral titers 1 × 10^12 vector genomes (vg)/mL); a control group received an equal number of AAV2-shCTRL particles (Figure 3C).
# Experiments were performed on 6- to 12-week-old male C57BL/6 mice (The Jackson Laboratory, Bar Harbor, ME) housed in the AAALAC-accredited facility at the University of Texas Medical Branch. Mice were group-housed with up to 5 mice per cage on a 12-to-12-hour light–dark cycle and had access to water and food ad libitum. All protocols were approved by the Institutional Animal Care and Use Committee (IACUC) at the University of Texas Medical Branch and in accordance with the National Institutes of Health (NIH) guidelines.
# PW164 and ZL192 were dissolved in DMSO and saline in a ratio of 1:10. 0.1% capsaicin (10% ethanol, 10% Tween-20 in saline; Sigma-Aldrich). All the compounds were injected at the center of the hind paw. The control group received a DMSO-saline mixture. […]
# Bupivacaine was prepared from a 1:2 dilution with sterile 0.9% saline and locally injected in the center of the paw at 7 mg/ml.
# AAV2 viral particles packaged by the University of North Carolina Gene Therapy Core Facility (viral titer ranging […]
# Before intrathecal injections in the lumbar region, mice were maintained in an anesthetizing box with 2% isoflurane to induce unconsciousness. Six microliters of viral vector were gently injected into the CSF through a 30-gauge needle with a Hamilton syringe in the lumbar area between vertebrae L4 and L5 by gently gripping the iliac crest of the mouse and inserting the needle with an angle of 45°. The correct procedure was confirmed by the mouse’s tail reflexiv e flick.
# Assessment of mechanical sensitivity
# Mechanical sensitivity was assessed using von Frey filaments (VFF 0.1g and 1.0 g force) in mice that were either naïve or received intraplantar (i.p.) injection of capsaicin. VFFs were applied at the injection site (capsaicin or […]
# [1] = Zl 0192 .06mg/ml 5ul site 2 i.d(after cap 0.5h ), Male GFP mouse site 1, hour 0
# [2] = Zl 0192 .06mg/ml 5ul site 2 i.d(after cap 0.5h ), Male GFP mouse site 1, hour 0.5
# [3] = Zl 0192 .06mg/ml 5ul site 2 i.d(after cap 0.5h ), Male GFP mouse site 1, hour 1
# [4] = Zl 0192 .06mg/ml 5ul site 2 i.d(after cap 0.5h ), Male GFP mouse site 1, hour 1.5
# [5] = Zl 0192 .06mg/ml 5ul site 2 i.d(after cap 0.5h ), Male GFP mouse site 1, hour 2
# [6] = Zl 0192 .06mg/ml 5ul site 2 i.d(after cap 0.5h ), Male GFP mouse site 1, hour 3
# [7] = Zl 0192 .06mg/ml 5ul site 2 i.d(after cap 0.5h ), Male GFP mouse site 2, hour 0
# [8] = Zl 0192 .06mg/ml 5ul site 2 i.d(after cap 0.5h ), Male GFP mouse site 2, hour 0.5
# [9] = Zl 0192 .06mg/ml 5ul site 2 i.d(after cap 0.5h ), Male GFP mouse site 2, hour 1
# [10] = Zl 0192 .06mg/ml 5ul site 2 i.d(after cap 0.5h ), Male GFP mouse site 2, hour 1.5
# [11] = Zl 0192 .06mg/ml 5ul site 2 i.d(after cap 0.5h ), Male GFP mouse site 2, hour 2
# [12] = Zl 0192 .06mg/ml 5ul site 2 i.d(after cap 0.5h ), Male GFP mouse site 2, hour 3
# [13] = Zl 0192 .06mg/ml 5ul site 2 i.d., Male GFP mouse site 1, hour 0
# [14] = Zl 0192 .06mg/ml 5ul site 2 i.d., Male GFP mouse site 1, hour 0.5
# [15] = Zl 0192 .06mg/ml 5ul site 2 i.d., Male GFP mouse site 1, hour 1
# [16] = Zl 0192 .06mg/ml 5ul site 2 i.d., Male GFP mouse site 1, hour 1.5
# [17] = Zl 0192 .06mg/ml 5ul site 2 i.d., Male GFP mouse site 1, hour 2
# [18] = Zl 0192 .06mg/ml 5ul site 2 i.d., Male GFP mouse site 1, hour 3
# [19] = Zl 0192 .06mg/ml 5ul site 2 i.d., Male GFP mouse site 2, hour 0
# [20] = Zl 0192 .06mg/ml 5ul site 2 i.d., Male GFP mouse site 2, hour 0.5
# [21] = Zl 0192 .06mg/ml 5ul site 2 i.d., Male GFP mouse site 2, hour 1
# [22] = Zl 0192 .06mg/ml 5ul site 2 i.d., Male GFP mouse site 2, hour 1.5
# [23] = Zl 0192 .06mg/ml 5ul site 2 i.d., Male GFP mouse site 2, hour 2
# [24] = Zl 0192 .06mg/ml 5ul site 2 i.d., Male GFP mouse site 2, hour 3
# [25] = Zl 0192 .18mg/ml 5ul site 2 i.d(after cap 0.5h ), Male GFP mouse site 1, hour 0
# [26] = Zl 0192 .18mg/ml 5ul site 2 i.d(after cap 0.5h ), Male GFP mouse site 1, hour 0.5
# [27] = Zl 0192 .18mg/ml 5ul site 2 i.d(after cap 0.5h ), Male GFP mouse site 1, hour 1
# [28] = Zl 0192 .18mg/ml 5ul site 2 i.d(after cap 0.5h ), Male GFP mouse site 1, hour 1.5
# [29] = Zl 0192 .18mg/ml 5ul site 2 i.d(after cap 0.5h ), Male GFP mouse site 1, hour 2
# [30] = Zl 0192 .18mg/ml 5ul site 2 i.d(after cap 0.5h ), Male GFP mouse site 1, hour 3
# [31] = Zl 0192 .18mg/ml 5ul site 2 i.d(after cap 0.5h ), Male GFP mouse site 2, hour 0
# [32] = Zl 0192 .18mg/ml 5ul site 2 i.d(after cap 0.5h ), Male GFP mouse site 2, hour 0.5
# [33] = Zl 0192 .18mg/ml 5ul site 2 i.d(after cap 0.5h ), Male GFP mouse site 2, hour 1
# [34] = Zl 0192 .18mg/ml 5ul site 2 i.d(after cap 0.5h ), Male GFP mouse site 2, hour 1.5
# [35] = Zl 0192 .18mg/ml 5ul site 2 i.d(after cap 0.5h ), Male GFP mouse site 2, hour 2
# [36] = Zl 0192 .18mg/ml 5ul site 2 i.d(after cap 0.5h ), Male GFP mouse site 2, hour 3
# [37] = Zl 0192 .18mg/ml 5ul site 2 i.d., Male GFP mouse site 1, hour 0
# [38] = Zl 0192 .18mg/ml 5ul site 2 i.d., Male GFP mouse site 1, hour 0.5
# [39] = Zl 0192 .18mg/ml 5ul site 2 i.d., Male GFP mouse site 1, hour 1
# [40] = Zl 0192 .18mg/ml 5ul site 2 i.d., Male GFP mouse site 1, hour 1.5
# [41] = Zl 0192 .18mg/ml 5ul site 2 i.d., Male GFP mouse site 1, hour 2
# [42] = Zl 0192 .18mg/ml 5ul site 2 i.d., Male GFP mouse site 1, hour 3
# [43] = Zl 0192 .18mg/ml 5ul site 2 i.d., Male GFP mouse site 2, hour 0
# [44] = Zl 0192 .18mg/ml 5ul site 2 i.d., Male GFP mouse site 2, hour 0.5
# [45] = Zl 0192 .18mg/ml 5ul site 2 i.d., Male GFP mouse site 2, hour 1
# [46] = Zl 0192 .18mg/ml 5ul site 2 i.d., Male GFP mouse site 2, hour 1.5
# [47] = Zl 0192 .18mg/ml 5ul site 2 i.d., Male GFP mouse site 2, hour 2
# [48] = Zl 0192 .18mg/ml 5ul site 2 i.d., Male GFP mouse site 2, hour 3
structure (smiles),measurement,setting,value
CC(=O)N[C@@H](Cc1ccccc1)C(=O)N[C@@H](CC(C)C)C(=O)N1CCC[C@H]1C(=O)N[C@@H](CCCCN)C(=O)Nc1ccccc1 [Zl 0192] (Ac-FLPK-NHPh),MECHANICAL HVF,[1],50
same,MECHANICAL LVF,[1],0
same,MECHANICAL HVF,[2],100
same,MECHANICAL LVF,[2],70
same,MECHANICAL HVF,[3],100
same,MECHANICAL LVF,[3],70
same,MECHANICAL HVF,[4],100
same,MECHANICAL LVF,[4],80
same,MECHANICAL HVF,[5],100
same,MECHANICAL LVF,[5],80 and 70
same,MECHANICAL HVF,[6],100
same,MECHANICAL LVF,[6],80 and 70
same,MECHANICAL HVF,[7],50
same,MECHANICAL LVF,[7],0
same,MECHANICAL HVF,[8],100
same,MECHANICAL LVF,[8],50 and 60
same,MECHANICAL HVF,[9],100
same,MECHANICAL LVF,[9],60
same,MECHANICAL HVF,[10],100
same,MECHANICAL LVF,[10],60 and 70
same,MECHANICAL HVF,[11],100
same,MECHANICAL LVF,[11],70 and 60
same,MECHANICAL HVF,[12],100
same,MECHANICAL LVF,[12],30 and 40
same,MECHANICAL HVF,[13],50
same,MECHANICAL LVF,[13],0
same,MECHANICAL HVF,[14],100
same,MECHANICAL LVF,[14],40 and 70
same,MECHANICAL HVF,[15],100
same,MECHANICAL LVF,[15],70 and 80
same,MECHANICAL HVF,[16],100
same,MECHANICAL LVF,[16],80 and 70
same,MECHANICAL HVF,[17],80 and 90
same,MECHANICAL LVF,[17],50
same,MECHANICAL HVF,[18],80
same,MECHANICAL LVF,[18],20 and 30
same,MECHANICAL HVF,[19],50
same,MECHANICAL LVF,[19],0
same,MECHANICAL HVF,[20],100
same,MECHANICAL LVF,[20],40 and 60
same,MECHANICAL HVF,[21],100
same,MECHANICAL LVF,[21],70
same,MECHANICAL HVF,[22],90 and 70
same,MECHANICAL LVF,[22],60 and 50
same,MECHANICAL HVF,[23],80 and 70
same,MECHANICAL LVF,[23],30 and 40
same,MECHANICAL HVF,[24],80 and 50
same,MECHANICAL LVF,[24],20 and 10
same,MECHANICAL HVF,[25],60 and 50
same,MECHANICAL LVF,[25],0
same,MECHANICAL HVF,[26],100
same,MECHANICAL LVF,[26],70 and 60
same,MECHANICAL HVF,[27],100
same,MECHANICAL LVF,[27],70 and 60
same,MECHANICAL HVF,[28],100
same,MECHANICAL LVF,[28],80 and 90
same,MECHANICAL HVF,[29],100
same,MECHANICAL LVF,[29],80 and 90
same,MECHANICAL HVF,[30],100
same,MECHANICAL LVF,[30],90 and 80
same,MECHANICAL HVF,[31],50
same,MECHANICAL LVF,[31],0
same,MECHANICAL HVF,[32],100
same,MECHANICAL LVF,[32],60 and 70
same,MECHANICAL HVF,[33],100
same,MECHANICAL LVF,[33],60
same,MECHANICAL HVF,[34],100
same,MECHANICAL LVF,[34],60 and 70
same,MECHANICAL HVF,[35],100
same,MECHANICAL LVF,[35],70 and 60
same,MECHANICAL HVF,[36],100
same,MECHANICAL LVF,[36],70
same,MECHANICAL HVF,[37],50
same,MECHANICAL LVF,[37],0
same,MECHANICAL HVF,[38],100
same,MECHANICAL LVF,[38],40 and 50
same,MECHANICAL HVF,[39],100
same,MECHANICAL LVF,[39],80
same,MECHANICAL HVF,[40],100
same,MECHANICAL LVF,[40],70
same,MECHANICAL HVF,[41],100
same,MECHANICAL LVF,[41],70 and 60
same,MECHANICAL HVF,[42],100
same,MECHANICAL LVF,[42],60
same,MECHANICAL HVF,[43],50
same,MECHANICAL LVF,[43],0
same,MECHANICAL HVF,[44],100
same,MECHANICAL LVF,[44],60 and 50
same,MECHANICAL HVF,[45],100
same,MECHANICAL LVF,[45],70 and 60
same,MECHANICAL HVF,[46],100
same,MECHANICAL LVF,[46],60
same,MECHANICAL HVF,[47],100
same,MECHANICAL LVF,[47],70
same,MECHANICAL HVF,[48],100
same,MECHANICAL LVF,[48],50
